From publication PMC3404986, “Pyridoxal 5′-Phosphate Is a Slow Tight Binding Inhibitor of E. coli Pyridoxal Kinase” (PLoS ONE, 2012)

Legend:
[1] = target: T1, ePL kinase (E. coli pyridoxal kinase 1, PL kinase1) (Escherichia coli, UniProt P40191); assay: size-exclusion chromatography, then coupled enzymatic ADP assay of denatured complex; type: binding; details: complex from PLP 0.5 mM + MgADP 1 mM + MgCl2 0.5 mM, pH 7.5, 37°C, 1 h; ternary complex with PLP
T1 construct: gene pdxK; full length, recombinant from E. coli; wild type untagged (as previously described); K229Q His-tagged (C-terminus; pET28a NdeI/EcoRI)
Description: size-exclusion chromatography, then coupled enzymatic ADP assay of denatured complex on ePL kinase (E. coli pyridoxal kinase 1, PL kinase1)

[2] = target: T1, ePL kinase (E. coli pyridoxal kinase 1, PL kinase1); assay: Sephadex G-50 spin column, absorbance of bound PLP at […] nm; details: PLP without nucleotide, 0.2 mM MgCl2, pH 7.5, 37°C; slow tight binding inhibitor; covalent, reversible aldimine, K229 suggested
[3] = target: T1, ePL kinase (E. coli pyridoxal kinase 1, PL kinase1); assay: CD at […] nm, bound PLP removed by PLP phosphatase; type: binding; details: complex formed from PL + MgATP; 10 µM PLP phosphatase as trap, pH 7.5, 37°C; covalent, reversible aldimine; only part of the PLP released

Row | SMILES | %ADP [1] [%] | Rate of complex formation [2] [min⁻¹] | rate of dissociation [3] [min⁻¹]
1 | Nc1ncnc2c1ncn2[C@@H]1O[C@H](COP(=O)(O)OP(=O)(O)O)[C@@H](O)[C@H]1O [MgADP] | 43 |  | 
2 | Cc1ncc(COP(=O)(O)O)c(C=O)c1O [PLP] |  | 0.16 | 0.012
